SMILES strings stand for the structures. Converted amounts (≈) assume the structure as drawn. Like-named read-outs stand apart in the source and are kept apart here.

Data set [1] is described as follows: Solubility estimates. The format is physicochemical. As to conditions: for Solubility pH 2.0: 0.01M HCl (approximately pH 2.0).
Data set [2] deals with T1, Falcipain 2 (Plasmodium falciparum, UniProt Q8I6U4).
T1 sequence (Q8I6U4 244-484): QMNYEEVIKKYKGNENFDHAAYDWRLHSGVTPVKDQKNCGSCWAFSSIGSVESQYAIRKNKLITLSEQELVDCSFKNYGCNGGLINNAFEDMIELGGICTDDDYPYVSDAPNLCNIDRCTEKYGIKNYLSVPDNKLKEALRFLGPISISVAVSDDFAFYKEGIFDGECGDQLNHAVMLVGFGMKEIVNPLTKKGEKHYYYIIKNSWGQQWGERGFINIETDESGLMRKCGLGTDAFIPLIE
Put plainly: Falcipain 2 inhibition assay. The format is biochemical. As to conditions: averages of duplicate determinations.

The conditions of data set [3]: NADPH and UDPGA relative to NADPH alone; putative P + 176 metabolite.
Data set [4] in a line: In vitro metabolic stability, human liver microsomes. The data set is classed as in vitro ADME. The note with it: calculated hepatic extraction ratio.
Data set [5] can be described thus: In vitro metabolic stability, mouse liver microsomes. The format is in vitro ADME. As to conditions: calculated hepatic extraction ratio.
For data set [6], the system named is Chinese Hamster Ovarian (mammalian) cell line. Put plainly: Cytotoxicity against Chinese Hamster Ovarian cell line. The format is cell-based. As to conditions: highest concentration (100 µM) tested.
The test system is the same in data set [7]. The note with it: previously reported finding; cited from earlier work.
The subject of data set [8] is P. falciparum chloroquine sensitive strain D10. Briefly: In vitro antiplasmodial activity, D10 strain. The data set is classed as cell-based. As to conditions: Plasmodium falciparum, D10, read-out: IC50, D10.
Data set [9] deals with P. falciparum chloroquine resistant strain Dd2. Briefly: In vitro antiplasmodial activity, Dd2 strain. The note with it: Plasmodium falciparum, DD2, read-out: IC50, Dd2. The data set is classed as cell-based.
Data set [10] has as its system P. falciparum chloroquine resistant strain W2. Put plainly: In vitro antiplasmodial activity, W2 strain. As to conditions: Plasmodium falciparum, W2, read-out: IC50, W2. The format is cell-based.

On to `COc1cc(/C=C/C(C)=O)ccc1OCCN1CCN(c2ccnc3cc(Cl)ccc23)CC1` [Compound 22, 4-(4-{2-[4-(7-Chloro-quinolin-4-yl)-piperazin-1-yl]-ethoxy}-3-methoxy-phenyl)-but-3-en-2-one], for which, in data set [1] (phosphate buffer, pH 6.5), the solubility is 1.6 to 3.1 µg/mL (≈ 3.43 to 6.65 µM). In addition, the “Falcipain 2 (IC50)” value in [2] is recorded as “relatively low potencies”. Moreover, the Primary glucuronidation result in [3] is reported as “no putative metabolites detected with molecular weights consistent with glucuronidation”.

Turning to `CC(=O)/C=C/c1ccc(O)c(CN2CCN(c3ccnc4cc(Cl)ccc34)CC2)c1` [Compound 26, 4-{3-[4-(7-Chloro-quinolin-4-yl)-piperazin-1-ylmethyl]-4-hydroxy-phenyl}-but-3-en-2-one], the “Microsome-Predicted Extraction ratio (EH), Human” value in data set [4] is listed as 0.93. Moreover, the “Microsome-Predicted Extraction ratio (EH), Mouse” value in data set [5] is given as 0.84. Besides, the “Falcipain 2 (IC50)” value in data set [2] is reported as “lower micromolar IC50 values”.

In the case of `COc1ccc(C(=O)/C=C/c2cc(CN3CCN(c4ccnc5cc(Cl)ccc45)CC3)c(O)c(OC)c2)c(OC)c1` [Compound 25, 3-{3-[4-(7-Chloro-quinolin-4-yl)-piperazin-1-ylmethyl]-4-hydroxy-5-methoxyphenyl}-1-(2,4-dimethoxy-phenyl)-propenone], the “Microsome-Predicted Extraction ratio (EH), Human” value in data set [4] was 0.72. In [5], the “Microsome-Predicted Extraction ratio (EH), Mouse” value is 0.87. The “Falcipain 2 (IC50)” value in data set [2] is recorded as “lower micromolar IC50 values”. The Cytotoxicity entry in data set [6] is reported as “No cytotoxicity was observed”.

With `COc1cc(/C=C/C(C)=O)cc(CN2CCN(c3ccnc4cc(Cl)ccc34)CC2)c1O` [Compound 24, 4-{3-[4-(7-Chloro-quinolin-4-yl)-piperazin-1-ylmethyl]-4-hydroxy-5-methoxyphenyl}-but-3-en-2-one], in [4], the “Microsome-Predicted Extraction ratio (EH), Human” value is 0.85. In addition, the “Microsome-Predicted Extraction ratio (EH), Mouse” value in data set [5] was 0.84. In addition, the solubility in [1] (phosphate buffer, pH 6.5) is 1.6 to 3.1 µg/mL (≈ 3.54 to 6.86 µM). Besides, the “Falcipain 2 (IC50)” value in [2] is listed as “relatively low potencies”.

As to `COc1ccc(C(=O)/C=C/c2ccc(OCc3cn(-c4ccnc5cc(Cl)ccc45)nn3)c(OC)c2)c(OC)c1` [Compound 8b], the “Solubility pH 2.0” value in data set [1] (1% DMSO) is “no increase in solubility under acidic conditions”. The “Falcipain 2 (IC50)” value in data set [2] is on record as “lower micromolar IC50 values”. The Cytotoxicity entry in data set [7] is recorded as “No cytotoxicity was observed”. Also, in data set [3], the Primary glucuronidation entry is “no major increase in the rate of degradation”.

Turning to `COc1cc(/C=C/C(C)=O)ccc1OCc1cn(-c2ccnc3cc(Cl)ccc23)nn1` [Compound 12], in [1] (1% DMSO), the “Solubility pH 2.0” value was “no increase in solubility under acidic conditions”. Further, the solubility in data set [1] (0.01M HCl, pH 2) is 3.1 to 6.3 µg/mL (≈ 7.13 to 14.5 µM); in data set [1] (phosphate buffer, pH 6.5), 3.1 to 6.3 µg/mL (≈ 7.13 to 14.5 µM). For the same compound, the Primary glucuronidation entry in data set [3] was “no putative metabolites detected with molecular weights consistent with glucuronidation”.

Take `COc1ccc(C(=O)/C=C/c2ccc(OCCN3CCN(c4ccnc5cc(Cl)ccc45)CC3)c(OC)c2)c(OC)c1` [Compound 23, 3-(4-{2-[4-(7-Chloro-quinolin-4-yl)-piperazin-1-yl]-ethoxy}-3-methoxy-phenyl)-1-(2,4-dimethoxy-phenyl)-propenone]: the “Falcipain 2 (IC50)” value in data set [2] is given as “lower micromolar IC50 values”. Moreover, the Primary glucuronidation entry in [3] is listed as “no major increase in the rate of degradation”.

Consider `CCN(CC)CCCC(C)Nc1ccnc2cc(Cl)ccc12` (stereo not drawn) [Chloroquine], for which the IC50 in data set [8] stood at 17 nM; in [9] it was 97 nM; in data set [10], 69 nM. Further, in [3], the Primary glucuronidation result was “no major increase in the rate of degradation”.

As for `COc1cc(/C=C/C(C)=O)ccc1OCCNc1ccnc2cc(Cl)ccc12` [Compound 20, 4-{4-[2-(7-Chloro-quinolin-4-ylamino)-ethoxy]-3-methoxy-phenyl}-but-3-en-2-one], the “Microsome-Predicted Extraction ratio (EH), Human” value in data set [4] is 0.90. Besides, the “Microsome-Predicted Extraction ratio (EH), Mouse” value in data set [5] is 0.85. The solubility was 50 to 100 µg/mL (≈ 126 to 252 µM) in [1] (0.01M HCl, pH 2) and 6.3 to 12.5 µg/mL (≈ 15.9 to 31.5 µM) in data set [1] (phosphate buffer, pH 6.5). In addition, in [1] (pH 6.5 phosphate buffer, 1% DMSO), the “Solubility pH 6.5” value was “moderate solubility”. Moreover, in data set [2], the “Falcipain 2 (IC50)” value was “relatively low potencies”. Besides, the Primary glucuronidation result in data set [3] is given as “no major increase in the rate of degradation”.

Turning to `COc1ccc(C(=O)/C=C/c2ccc(O)c(CN3CCN(c4ccnc5cc(Cl)ccc45)CC3)c2)c(OC)c1` [Compound 27, 3-{3-[4-(7-Chloro-quinolin-4-yl)-piperazin-1-ylmethyl]-4-hydroxy-phenyl}-1-(2,4-dimethoxy-phenyl)-propenone], in data set [2], the “Falcipain 2 (IC50)” value is listed as “lower micromolar IC50 values”. In addition, the Cytotoxicity entry in data set [6] is “No cytotoxicity was observed”.

On to `COc1ccc(C(=O)/C=C/c2ccc(OCCNc3ccnc4cc(Cl)ccc34)c(OC)c2)c(OC)c1` [Compound 21, 3-{4-[2-(7-Chloro-quinolin-4-ylamino)-ethoxy]-3-methoxy-phenyl}-1-(2,4-dimethoxy-phenyl)-propenone], for which the “Microsome-Predicted Extraction ratio (EH), Human” value in [4] is given as 0.85. For the same compound, in data set [5], the “Microsome-Predicted Extraction ratio (EH), Mouse” value is recorded as 0.86. For the same compound, the solubility in data set [1] (phosphate buffer, pH 6.5) was 3.1 to 6.3 µg/mL (≈ 5.97 to 12.1 µM). In addition, the “Falcipain 2 (IC50)” value in data set [2] is reported as “lower micromolar IC50 values”. The Primary glucuronidation result in data set [3] is reported as “no major increase in the rate of degradation”.

The values above are taken from article PMC3104272 (Journal of medicinal chemistry, 2011).
